According to ChEMBL document CHEMBL3232945 (Eur J Med Chem, 2014):

How the values were obtained:
Rattus norvegicus [1] = test: Antiarrhythmic activity in barium chloride-induced Wistar rat assessed as increase in appearance time of arrhythmia at 40 mg/kg, ip administered 60 mins before barium chloride challenge (reference value: 129.4 +/- 4.373 sec); assay type: functional, Heart; conditions: route intraperitoneal
Rattus norvegicus [2] = test: Toxicity in anesthetized-normotensive Wistar rat assessed as heart rate at 40 mg/kg, ip after 60 mins (reference value: 314.96 +/- 9.442 bpm); assay type: organism-based; design: dose 40 mg/kg, route intraperitoneal; conditions: in vivo, 1 h
Rattus norvegicus [3] = test: Toxicity in anaesthetized-Wistar rat assessed as Q-T ECG interval at 40 mg/kg, ip after 15 mins (reference value: 79.4 +/- 1.270 ms); assay type: organism-based; design: dose 40 mg/kg, route intraperitoneal; conditions: in vivo, 0.25 h
Rattus norvegicus [4] = test: Toxicity in anesthetized-normotensive Wistar rat assessed as heart rate at 40 mg/kg, ip after 45 mins (reference value: 316.82 +/- 8.452 bpm); assay type: organism-based; design: dose 40 mg/kg, route intraperitoneal; conditions: in vivo, 0.75 h
Rattus norvegicus [5] = test: Toxicity in […] normotensive Wistar rat assessed as mean arterial pressure at 40 mg/kg, ip after 30 mins (reference value: 94.68 +/- 1.213 mmHg); assay type: organism-based, Artery; design: dose 40 mg/kg, route intraperitoneal; conditions: in vivo, 0.5 h
Rattus norvegicus [6] = test: Antihypertensive activity in Wistar rat assessed as mean arterial pressure at 40 mg/kg, ip measured immediately at 0 min (reference value: 194.08 +/- 1.962 mmHg); assay type: functional, Artery; conditions: route intraperitoneal
Rattus norvegicus [7] = test: Toxicity in anesthetized-normotensive Wistar rat assessed as heart rate at 40 mg/kg, ip measured immediately at 0 min (reference value: 316.62 +/- 9.643 bpm); assay type: organism-based; design: dose 40 mg/kg, route intraperitoneal; conditions: in vivo, 0 h
Rattus norvegicus [8] = test: Antiarrhythmic activity in barium chloride-induced Wistar rat assessed as increase in mortality time at 40 mg/kg, ip administered 60 mins before barium chloride challenge (reference value: 682.8 +/- 9.656 secs); assay type: functional, Heart; conditions: route intraperitoneal
Rattus norvegicus [9] = test: Toxicity in anaesthetized-Wistar rat assessed as P-Q ECG interval at 40 mg/kg, ip measured immediately at 0 min (reference value: 52.4 +/- 0.927 ms); assay type: organism-based; design: dose 40 mg/kg, route intraperitoneal; conditions: in vivo, 0 h
Rattus norvegicus [10] = test: Toxicity in […] normotensive Wistar rat assessed as mean arterial pressure at 40 mg/kg, ip after 60 mins (reference value: 95.07 +/- 1.973 mmHg); assay type: organism-based, Artery; design: dose 40 mg/kg, route intraperitoneal; conditions: in vivo, 1 h
Rattus norvegicus [11] = test: Toxicity in anaesthetized-Wistar rat assessed as P-Q ECG interval at 40 mg/kg, ip after 15 mins (reference value: 52.2 +/- 1.158 ms); assay type: organism-based; design: dose 40 mg/kg, route intraperitoneal; conditions: in vivo, 0.25 h
Rattus norvegicus [12] = test: Toxicity in […] normotensive Wistar rat assessed as mean arterial pressure at 40 mg/kg, ip after 45 mins (reference value: 94.83 +/- 0.943 mmHg); assay type: organism-based, Artery; design: dose 40 mg/kg, route intraperitoneal; conditions: in vivo, 0.75 h
Rattus norvegicus [13] = test: Antihypertensive activity in Wistar rat assessed as mean arterial pressure at 40 mg/kg, ip after 15 mins (reference value: 195.68 +/- 1.623 mmHg); assay type: functional, Artery; conditions: route intraperitoneal
Rattus norvegicus [14] = test: Toxicity in anesthetized-normotensive Wistar rat assessed as heart rate at 40 mg/kg, ip after 15 mins (reference value: 313.93 +/- 9.912 bpm); assay type: organism-based; design: dose 40 mg/kg, route intraperitoneal; conditions: in vivo, 0.25 h
Rattus norvegicus [15] = test: Toxicity in anaesthetized-Wistar rat assessed as QRS ECG interval at 40 mg/kg, ip after 45 mins (reference value: 20.2 +/- 1.348 ms); assay type: organism-based; design: dose 40 mg/kg, route intraperitoneal; conditions: in vivo, 0.75 h
Rattus norvegicus [16] = test: Toxicity in anesthetized-normotensive Wistar rat assessed as heart rate at 40 mg/kg, ip after 30 mins (reference value: 317.68 +/- 7.631 bpm); assay type: organism-based; design: dose 40 mg/kg, route intraperitoneal; conditions: in vivo, 0.5 h
Rattus norvegicus [17] = test: Toxicity in anaesthetized-Wistar rat assessed as Q-T ECG interval at 40 mg/kg, ip after 30 mins (reference value: 78.3 +/- 0.860 ms); assay type: organism-based; design: dose 40 mg/kg, route intraperitoneal; conditions: in vivo, 0.5 h
Rattus norvegicus [18] = test: Toxicity in anaesthetized-Wistar rat assessed as P-Q ECG interval at 40 mg/kg, ip after 45 mins (reference value: 52.5 +/- 0.780 ms); assay type: organism-based; design: dose 40 mg/kg, route intraperitoneal; conditions: in vivo, 0.75 h
Rattus norvegicus [19] = test: Toxicity in […] normotensive Wistar rat assessed as mean arterial pressure at 40 mg/kg, ip after 15 mins (reference value: 93.81 +/- 1.543 mmHg); assay type: organism-based, Artery; design: dose 40 mg/kg, route intraperitoneal; conditions: in vivo, 0.25 h
Rattus norvegicus [20] = test: Toxicity in anaesthetized-Wistar rat assessed as QRS ECG interval at 40 mg/kg, ip after 30 mins (reference value: 19.9 +/- 1.393 ms); assay type: organism-based; design: dose 40 mg/kg, route intraperitoneal; conditions: in vivo, 0.5 h
Rattus norvegicus [21] = test: Toxicity in anaesthetized-Wistar rat assessed as P-Q ECG interval at 40 mg/kg, ip after 60 mins (reference value: […] +/- 0.924 ms); assay type: organism-based; design: dose 40 mg/kg, route intraperitoneal; conditions: in vivo, 1 h
Rattus norvegicus [22] = test: Antihypertensive activity in Wistar rat assessed as mean arterial pressure at 40 mg/kg, ip after 30 mins (reference value: 194.72 +/- 1.002 mmHg); assay type: functional, Artery; conditions: route intraperitoneal
Rattus norvegicus [23] = test: Toxicity in anaesthetized-Wistar rat assessed as QRS ECG interval at 40 mg/kg, ip after 15 mins (reference value: 18.9 +/- 1.563 ms); assay type: organism-based; design: dose 40 mg/kg, route intraperitoneal; conditions: in vivo, 0.25 h
Rattus norvegicus [24] = test: Antihypertensive activity in Wistar rat assessed as mean arterial pressure at 40 mg/kg, ip after 45 mins (reference value: 193.96 +/- 0.865 mmHg); assay type: functional, Artery; conditions: route intraperitoneal
Rattus norvegicus [25] = test: Toxicity in anaesthetized-Wistar rat assessed as QRS ECG interval at 40 mg/kg, ip measured immediately at 0 min (reference value: 19.6 +/- 1.142 ms); assay type: organism-based; design: dose 40 mg/kg, route intraperitoneal; conditions: in vivo, 0 h
Rattus norvegicus [26] = test: Toxicity in anaesthetized-Wistar rat assessed as QRS ECG interval at 40 mg/kg, ip after 60 mins (reference value: 19.3 +/- 0.873 ms); assay type: organism-based; design: dose 40 mg/kg, route intraperitoneal; conditions: in vivo, 1 h
Rattus norvegicus [27] = test: Toxicity in anaesthetized-Wistar rat assessed as Q-T ECG interval at 40 mg/kg, ip after 60 mins (reference value: 79.7 +/- 0.965 ms); assay type: organism-based; design: dose 40 mg/kg, route intraperitoneal; conditions: in vivo, 1 h
Rattus norvegicus [28] = test: Antihypertensive activity in Wistar rat assessed as mean arterial pressure at 40 mg/kg, ip after 60 mins (reference value: 195.11 +/- 0.531 mmHg); assay type: functional, Artery; conditions: route intraperitoneal
Rattus norvegicus [29] = test: Toxicity in […] normotensive Wistar rat assessed as mean arterial pressure at 40 mg/kg, ip measured immediately at 0 min (reference value: 94.21 +/- 2.065 mmHg); assay type: organism-based, Artery; design: dose 40 mg/kg, route intraperitoneal; conditions: in vivo, 0 h
Rattus norvegicus [30] = test: Toxicity in anaesthetized-Wistar rat assessed as P-Q ECG interval at 40 mg/kg, ip after 30 mins (reference value: […] +/- 0.927 ms); assay type: organism-based; design: dose 40 mg/kg, route intraperitoneal; conditions: in vivo, 0.5 h
Rattus norvegicus [31] = test: Toxicity in anaesthetized-Wistar rat assessed as Q-T ECG interval at 40 mg/kg, ip measured immediately at 0 min (reference value: 78.8 +/- 1.030 ms); assay type: organism-based; design: dose 40 mg/kg, route intraperitoneal; conditions: in vivo, 0 h

| Compound | Time (Rattus norvegicus [1]) | Activity (Rattus norvegicus [2]) | Activity (Rattus norvegicus [3]) | Activity (Rattus norvegicus [4]) | Activity (Rattus norvegicus [5]) | Activity (Rattus norvegicus [6]) | Activity (Rattus norvegicus [7]) | Time (Rattus norvegicus [8]) | Activity (Rattus norvegicus [9]) | Activity (Rattus norvegicus [10]) | Activity (Rattus norvegicus [11]) | Activity (Rattus norvegicus [12]) | Activity (Rattus norvegicus [13]) | Activity (Rattus norvegicus [14]) | Activity (Rattus norvegicus [15]) | Activity (Rattus norvegicus [16]) | Activity (Rattus norvegicus [17]) | Activity (Rattus norvegicus [18]) | Activity (Rattus norvegicus [19]) | Activity (Rattus norvegicus [20]) | also measured |
| --- | --- | --- | --- | --- | --- | --- | --- | --- | --- | --- | --- | --- | --- | --- | --- | --- | --- | --- | --- | --- | --- |
| O=C1/C(=C\c2ccccc2)S/C(=N\c2ccccc2)N1CC(O)CN1CCN(Cc2ccccc2)CC1 (configuration not stated) | 296.9 s | 312.21 bpm | 74.9 min | 298.21 bpm | 78.19 mmHg | 194.51 mmHg | 333.62 bpm | 986.7 s | 49.8 ms | 85.44 mmHg | 50.4 min | 72.57 mmHg | 179.02 mmHg | 312.34 bpm | 23.1 min | 283.52 bpm | 73.2 min | 51.3 min | 92.1 mmHg | 23.8 ms | Activity (Rattus norvegicus [21]): 52.7 min; Activity (Rattus norvegicus [22]): 160.63 mmHg; Activity (Rattus norvegicus [23]): 23.2 min; Activity (Rattus norvegicus [24]): 166.41 mmHg; Activity (Rattus norvegicus [25]): 23.4 min; Activity (Rattus norvegicus [26]): 23.7 min; Activity (Rattus norvegicus [27]): 74.2 ms; Activity (Rattus norvegicus [28]): 179.51 mmHg; Activity (Rattus norvegicus [29]): 95.09 mmHg; Activity (Rattus norvegicus [30]): 50.9 min; Activity (Rattus norvegicus [31]): 74.3 min |
| O=C1/C(=C\c2ccccc2)S/C(=N\c2ccccc2)N1CC(O)CN1CCCC1 (configuration not stated) | 285.3 s | 309.32 bpm | 71.2 min | 287.15 bpm | 74.76 mmHg | 196.1 mmHg | 318.73 bpm | 918.8 s | 50.2 ms | 73.12 mmHg | 51.6 min | 69.69 mmHg | 165.01 mmHg | 298.54 bpm | 21.1 min | 256.85 bpm | 72.6 min | 53.3 min | 84.63 mmHg | 22.5 ms | Activity (Rattus norvegicus [21]): 52.8 min; Activity (Rattus norvegicus [22]): 148.37 mmHg; Activity (Rattus norvegicus [23]): 21.3 min; Activity (Rattus norvegicus [24]): 149.39 mmHg; Activity (Rattus norvegicus [25]): 20.5 min; Activity (Rattus norvegicus [26]): 20.6 min; Activity (Rattus norvegicus [27]): 70.9 ms; Activity (Rattus norvegicus [28]): 177.56 mmHg; Activity (Rattus norvegicus [29]): 93.02 mmHg; Activity (Rattus norvegicus [30]): 54.3 min; Activity (Rattus norvegicus [31]): 70.6 min |
